In brackets after ≈: the same amount, converted by molar mass.
Legend:
[1] = rat models; cited from earlier work
[2] = DOSY NMR of saturated phenytoin with increasing polymer concentration; assay type: physicochemical; conditions: deuterated PBS, poly(NIPAm70-co-DMA30) concentration increased (up to 1000 μg/mL)
[3] = aqueous settings; cited from earlier work

Row | Structure (SMILES) | AUC over 24 h [1] [μg/mL-min] | translational diffusion coefficient (D0) of phenytoin [2] | solubility [3] [mg/mL]
1 | O=C1NC(c2ccccc2)(c2ccccc2)C(=O)N1COP(=O)(O)O [fosphenytoin] | 1860 ± 310 | – | –
2 | O=C1NC(=O)C(c2ccccc2)(c2ccccc2)N1 [phenytoin] | – | 3.72 ± 0.19 × 10^–10 m^2/s | ~0.03 (≈ 119 µM)

Source: article PMC5084074 (ACS Central Science, 2016)
